Reference: paper PMC10349921 (Bioorganic & medicinal chemistry, 2022)

Biological target: human galectin 3 (Homo sapiens, UniProt P17931)
Test: SPR analysis of binding of glycan ligands to immobilized human Gal-3
Details: for Relative affinity: calculated relative to the free lactose

human galectin 3, sequence (P17931 whole entry): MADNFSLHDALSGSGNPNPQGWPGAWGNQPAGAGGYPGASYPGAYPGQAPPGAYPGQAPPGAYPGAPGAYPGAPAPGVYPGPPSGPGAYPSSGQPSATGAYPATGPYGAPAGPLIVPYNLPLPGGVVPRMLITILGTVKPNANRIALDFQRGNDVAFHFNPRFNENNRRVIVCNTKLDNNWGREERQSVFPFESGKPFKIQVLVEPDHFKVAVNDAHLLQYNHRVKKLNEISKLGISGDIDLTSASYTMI

Question: With `CC(=O)N[C@H]1[C@@H](OCCOCCOCCN=[N+]=[N-])O[C@H](CO)[C@H](O)[C@@H]1O[C@@H]1O[C@H](CO)[C@H](O)[C@H](O)[C@H]1O` [mono TFD (2), 2-(2-(2-Azido)ethoxy)ethyl-2-actamido-2-desoxy-3-O-[-β-D-galactopyranosyl]-α-D-galactopyranoside] as the molecule, how does the Relative affinity read?
Answer: Its Relative affinity is less than 1.47.

Question: For `CC(=O)N[C@H]1[C@@H](OCCOCCOCCN=[N+]=[N-])O[C@H](CO)[C@H](O)[C@@H]1O` [mono Tn (1), 2-(2-(2-Azido)ethoxy)ethyl-2-actamido-2-desoxy-α-D-gal-actopyranoside], which Relative affinity is on record?
Answer: The Relative affinity was less than 1.47.

Question: With `[N-]=[N+]=NCCOCCOCCO[C@@H]1O[C@H](CO)[C@@H](O[C@@H]2O[C@H](CO)[C@H](O)[C@H](O)[C@H]2O)[C@H](O)[C@H]1O` [mono Lac (3)] as the molecule, how does the Relative affinity read?
Answer: The Relative affinity was less than 1.47.

Question: With β-Cyclodextrin-GalNAc [CD-Tn (16)] as the molecule, how does the EC50 (SPR, Gal-3 immobilized on CM5 chip, ligand as analyte, 25 °C) read?
Answer: Its EC50 is 1370 ± 390 nM.

Question: What about the “enhanced relative affinity (per glycan ligand) in comparison with free lactose” value (SPR, per glycan ligand) of the same molecule?
Answer: Its value is 153 fold.

Question: And the “Relative affinity per unit” value (calculated for each sugar unit on cyclodextrin, relative to free lactose)?
Answer: Its value is 153.

Question: What about the Relative affinity of the same molecule?
Answer: The Relative affinity was 1070.
